Structures are written as SMILES.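 Five concentrations, 48 hours, 96-well plates. GI50: concentration for 50% inhibition of growth. TGI marks complete inhibition of growth.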

Among the test systems are 786-0 renal; HOP-62 NSCLC; KM12 colon; LOX IMVI melanoma; PC-3 prostate; RPMI-8226 leukemia; SN12C renal; SW-620 colon; UACC-62 melanoma; ACHN renal.
What all share (experiment): growth of human tumour cells (NCI), 48 h

As for `CC1=C(CCCOC(=O)[C@H](N)CC(C)C)C2=C(C)C3(CC3)[C@@](C)(O)C(=O)C2=C1`, the GI50 is 2.84 µM in the test with 786-0 renal; 1.61 µM with HOP-62 NSCLC; 7.66 µM in the test on KM12 colon; 2.42 µM in the test on LOX IMVI melanoma; 2.43 µM in the test on PC-3 prostate; 21.2 µM in the test with RPMI-8226 leukemia. In addition, the GI50 was 2.6 µM with SN12C renal, 19.6 µM with SW-620 colon and 1.75 µM in the test on UACC-62 melanoma. Further, the TGI with 786-0 renal was 11.4 µM; in the test with HOP-62 NSCLC, 5.42 µM; with KM12 colon it was above 100 µM; with LOX IMVI melanoma it was 8.9 µM; in the test with PC-3 prostate, 44.1 µM; in the test on RPMI-8226 leukemia it was 57.1 µM. Besides, the TGI in the test on SN12C renal is above 100 µM; with SW-620 colon it was above 84 µM; in the test with UACC-62 melanoma, 3.75 µM.
As for `CN(C)CCNC(=O)c1cc2c3cc(Cl)ccc3[nH]c2c2ncccc12`, the GI50 is 4.83 µM in the test with 786-0 renal; 1.62 µM in the test on ACHN renal; 5.85 µM in the test with HOP-62 NSCLC; 3.03 µM in the test on KM12 colon; 1.51 µM in the test with LOX IMVI melanoma; 3.62 µM in the test with PC-3 prostate. Moreover, the GI50 in the test with RPMI-8226 leukemia is 1.78 µM; with SN12C renal, 2.9 µM; with SW-620 colon, 1.47 µM; with UACC-62 melanoma, 1.94 µM. Besides, the TGI is 18.1 µM with 786-0 renal; 6.98 µM in the test with ACHN renal; 19.1 µM with HOP-62 NSCLC; 13.7 µM in the test on KM12 colon; 2.92 µM in the test with LOX IMVI melanoma; 14.8 µM with PC-3 prostate. For the same compound, the TGI in the test with RPMI-8226 leukemia is 3.84 µM; in the test on SN12C renal, 13.4 µM; with SW-620 colon, 3.52 µM; with UACC-62 melanoma it was 3.77 µM.
In the case of `Cn1ncnc1[C@@H]1c2n[nH]c(=O)c3cc(F)cc(c23)N[C@H]1c1ccc(F)cc1`, the GI50 with 786-0 renal, in the test with ACHN renal, in the test with HOP-62 NSCLC, in the test with KM12 colon, with LOX IMVI melanoma and in the test with PC-3 prostate was above 100 µM throughout. Further, the GI50 in the test on RPMI-8226 leukemia, in the test with SN12C renal, with SW-620 colon and in the test with UACC-62 melanoma was above 100 µM throughout. The TGI in the test with 786-0 renal, with ACHN renal, with HOP-62 NSCLC, in the test with KM12 colon, with LOX IMVI melanoma and in the test with PC-3 prostate was above 100 µM each time. Moreover, the TGI with RPMI-8226 leukemia, in the test on SN12C renal, in the test with SW-620 colon and in the test with UACC-62 melanoma was above 100 µM throughout.
Take `Cc1c(Cl)cccc1C(=O)Nc1nc2c(s1)CN(C(=O)Nc1cccc(C(F)(F)F)c1)CC2`: the GI50 in the test with 786-0 renal is 0.254 µM; in the test with ACHN renal, 0.326 µM; in the test on HOP-62 NSCLC it was 0.278 µM; in the test on KM12 colon, 0.174 µM; in the test with LOX IMVI melanoma it was 0.226 µM; in the test on PC-3 prostate, 0.143 µM. Further, the GI50 is 0.202 µM in the test on RPMI-8226 leukemia, 0.334 µM with SN12C renal, 0.175 µM in the test on SW-620 colon and 0.366 µM with UACC-62 melanoma. Moreover, the TGI in the test on 786-0 renal was above 25.3 µM; with HOP-62 NSCLC, above 50 µM; in the test on KM12 colon, above 21.7 µM; in the test on LOX IMVI melanoma, 11 µM; in the test with PC-3 prostate, above 50 µM; in the test with RPMI-8226 leukemia, above 39.2 µM. The TGI in the test on SN12C renal, in the test on SW-620 colon and in the test on UACC-62 melanoma was above 50 µM each time.
For `O=C(O)/C=C/c1ccc(O)c(O)c1`, the TGI with 786-0 renal, with ACHN renal, in the test on HOP-62 NSCLC, with KM12 colon, in the test on LOX IMVI melanoma and in the test on PC-3 prostate was above 100 µM throughout. Moreover, the TGI with RPMI-8226 leukemia was above 100 µM; with SN12C renal it was above 100 µM; in the test on SW-620 colon it was above 76.3 µM; in the test with UACC-62 melanoma, above 100 µM.
As for `O=C(NCc1cn(Cc2cccc(Oc3ccccc3)c2)nn1)c1cccnc1Nc1ccc(F)cc1`, the GI50 in the test on 786-0 renal is 23.2 µM; in the test on ACHN renal, 11 µM; with HOP-62 NSCLC it was 6.02 µM; in the test on KM12 colon, 5.61 µM; in the test on LOX IMVI melanoma, 61.3 µM; in the test with PC-3 prostate it was 20.4 µM. The GI50 in the test on RPMI-8226 leukemia was above 100 µM; in the test with SN12C renal it was 52.6 µM; in the test on SW-620 colon, 6.58 µM; with UACC-62 melanoma, 6.51 µM. Besides, the TGI was above 100 µM in the test on 786-0 renal; above 100 µM with ACHN renal; 32.5 µM with HOP-62 NSCLC; above 100 µM in the test on KM12 colon; above 100 µM in the test on LOX IMVI melanoma; above 100 µM in the test on PC-3 prostate. The TGI in the test on RPMI-8226 leukemia, in the test on SN12C renal, with SW-620 colon and in the test on UACC-62 melanoma was above 100 µM throughout.
`CCCCn1c(=O)[nH]c(N)c([C@@H]2c3c([nH]c(=O)n(CCCC)c3=O)Oc3ccc4ccccc4c32)c1=O`: the GI50 is 2.04 µM with 786-0 renal; 1.8 µM in the test on ACHN renal; 1.5 µM in the test with HOP-62 NSCLC; 1.69 µM in the test with KM12 colon; 1.29 µM with LOX IMVI melanoma; 1.65 µM with PC-3 prostate. The GI50 in the test on RPMI-8226 leukemia is 3.48 µM; in the test with SN12C renal it was 2.51 µM; in the test on SW-620 colon, 0.37 µM; with UACC-62 melanoma, 1.67 µM. For the same compound, the TGI with 786-0 renal came to 4.41 µM; in the test on ACHN renal, 3.59 µM; in the test on HOP-62 NSCLC, 4.72 µM; with KM12 colon, 3.26 µM; in the test on LOX IMVI melanoma it was 2.69 µM; with PC-3 prostate, 3.23 µM. Further, the TGI in the test with RPMI-8226 leukemia worked out at 13.5 µM; with SN12C renal it was 6.94 µM; in the test on SW-620 colon, 1.18 µM; with UACC-62 melanoma, 3.36 µM.
Take `CC(C)(C)CC(C)(C)c1ccc(OCCO)cc1`: the GI50 in the test with 786-0 renal was 10.9 µg/mL; in the test on ACHN renal, 6.05 µg/mL; in the test with HOP-62 NSCLC, 3.75 µg/mL; in the test on KM12 colon it was 7.81 µg/mL; in the test on LOX IMVI melanoma, 2.19 µg/mL; in the test on PC-3 prostate, 3.26 µg/mL. In addition, the GI50 with RPMI-8226 leukemia is 1.9 µg/mL; in the test on SN12C renal, 6.38 µg/mL; with SW-620 colon, 7.73 µg/mL; in the test on UACC-62 melanoma it was 3.51 µg/mL. Further, the TGI with 786-0 renal is 33.7 µg/mL; with ACHN renal it was above 75 µg/mL; in the test on HOP-62 NSCLC, 16.3 µg/mL; in the test with KM12 colon it was 18.6 µg/mL; in the test on LOX IMVI melanoma, 11.2 µg/mL; in the test on PC-3 prostate, 16 µg/mL. In addition, the TGI with RPMI-8226 leukemia was found to be 19.5 µg/mL; in the test on SN12C renal, 16.7 µg/mL; in the test with SW-620 colon, 18.6 µg/mL; in the test on UACC-62 melanoma it was 15.9 µg/mL.
